# Values of other authors in patent US12616707B2, “Compositions and methods for improving gut health” (Plexus Worldwide, LLC., priority 2017, dated 2026).
# How the values were obtained:
# [1] = tested on: high-fat fed mice
# [2] = tested on: DSS-induced colitis model; conditions: chlorogenic acid supplementation
# [3] = 0.02% (wt/wt) in high-fat diet vs high-fat control group
compound,measurement,setting,value
O=C(/C=C/c1ccc(O)c(O)c1)O[C@@H]1C[C@](O)(C(=O)O)C[C@@H](O)[C@H]1O [chlorogenic acid],Body weight,[1]; [3],significantly lowered
same,Plasma insulin levels,[1]; [3],significantly lowered
same,Plasma leptin levels,[1]; [3],significantly lowered
same,Visceral fat mass,[1]; [3],significantly lowered
same,"Cholesterol concentrations (plasma, adipose tissue and heart)",[1]; high-fat diet,lowered
same,"Triglyceride concentrations (plasma, liver and heart)",[1]; high-fat diet,lowered
same,IL-1β expression,[2],significant suppression
